Patent US8541363B2, “Pyruvamide compounds as inhibitors of dust mite group 1 peptidase allergen and their use” (St George's Hosptial Medical School, priority 2010, dated 2013)
Like-named read-outs stand apart in the source and are kept apart here.

Target: Der p 1 (Dermatophagoides pteronyssinus (European house dust mite), UniProt P08176)
Assay: Der p 1 enzyme activity assay (FRET fluorogenic substrate)
Format: biochemical
Method: The fluorogenic substrate used for measuring Der p 1 proteolytic activity was 2-aminobenzoylvalylalanylnorleucylseryl-(3-nitro)tyrosinyl aspartamide.
Test compounds were dissolved in dry DMSO and maintained at 4° C. as stock solutions until being diluted for use in screening assays. Final concentration of DMSO in all enzymatic assays was 0.5% v/v.
Reaction mixtures were assembled in a 96-well plate format (Perkin Elmer Optiplate 96F, Perkin Elmer LAS, Seer Green, Buckinghamshire, UK) using a Perkin Elmer MultiPROBE II Plus HTS EX robot with Gripper attachment. […] Dithiothreitol (DTT, 10 μL/well, 1 mM final concentration) was then added together with 10 μL of Der p 1 dissolved at 2.5 μg/mL in reaction buffer supplemented with 1 mM DTT. […] The plate was immediately transferred to a fluorescence plate reader (Perkin Elmer Fusion Alpha-FP or Perkin Elmer Envision) equipped with a temperature-controlled carrier set at 30° C. and the reaction followed by excitation/emission at 330/420 nm.
Inhibitory activity was analysed from progress curves of reactions in the presence of a range of inhibitor concentrations.
Initial velocity in each well was converted to fractional activity by Equation 1: Fractional activity=(Initial rate at inhibitor concentration[X]/Initial rate at inhibitor concentration zero)*100 Equation 1:
Then, IC50 was determined by fitting the data of fractional activity and inhibitor concentration to a 4-parameter logistic curve, using Equation 2: V=Vmin+[Vmax−Vmin]/[1+(X/IC50)Hillslope] […] Biological Data—Der p 1 Enzyme Assay

[1] = threshold stated in text, read-out: Der p 1 IC50
[2] = Table 1, read-out: Der p 1 IC50

Chain of Der p 1 (P08176 99-320): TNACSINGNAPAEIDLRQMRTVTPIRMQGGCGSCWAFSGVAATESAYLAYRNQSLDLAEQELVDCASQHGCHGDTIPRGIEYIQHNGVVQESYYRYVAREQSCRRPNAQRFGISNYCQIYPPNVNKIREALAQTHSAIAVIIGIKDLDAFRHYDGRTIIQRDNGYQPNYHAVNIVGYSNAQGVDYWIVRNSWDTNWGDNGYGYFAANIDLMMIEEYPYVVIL

Structure (SMILES) | IC50 [1] [nM] | also measured
CC(C)C(NC(=O)[C@H](C)NC(=O)[C@@H](Cc1ccccc1)NC(=O)c1ccncc1)C(=O)C(=O)NC1CCCCC1 (stereo in doubt) [PVA-020] | < 200 | –
CC(C)C[C@H](NC(=O)[C@H](C)NC(=O)[C@H](Cc1ccccc1)NC(=O)c1ccccc1)C(=O)C(=O)N[C@@H](C)c1ccccc1 [PVA-002] | < 200 | –
CC(C)[C@H](NC(=O)[C@H](C)NC(=O)[C@H](Cc1ccccc1)NC(=O)c1ccccc1)C(=O)C(=O)NC1CCCCC1 [PVA-003] | < 20 | –
CC(C)C[C@H](NC(=O)[C@H](C)NC(=O)[C@H](Cc1ccccc1)NC(=O)c1ccccc1)C(=O)C(=O)NC(C)C [PVA-004] | < 200 | –
CC(C)C[C@H](NC(=O)[C@H](C)NC(=O)[C@H](Cc1ccccc1)NC(=O)c1ccccc1)C(=O)C(=O)NCc1ccccc1 [PVA-005] | < 20 | –
CCCCC(NC(=O)[C@H](C)NC(=O)[C@H](Cc1ccccc1)NC(=O)c1ccccc1)C(=O)C(=O)N1CCCC1 (some centres unmarked) [PVA-006] | < 2000 | –
CCCCC(NC(=O)[C@H](C)NC(=O)[C@H](Cc1ccccc1)NC(=O)c1ccccc1)C(=O)C(=O)N1CCN(C)CC1 (some centres unmarked) [PVA-007] | < 2000 | –
CC(C)[C@H](NC(=O)[C@H](C)NC(=O)[C@H](Cc1ccccc1)NC(=O)c1ccccc1)C(=O)C(=O)NCc1ccccc1 [PVA-009] | < 20 | –
CC(C)[C@H](NC(=O)[C@H](C)NC(=O)[C@H](Cc1ccccc1)NC(=O)c1ccccc1)C(=O)C(=O)NCCc1ccccc1 [PVA-010] | < 200 | –
CC(C)[C@H](NC(=O)[C@H](C)NC(=O)[C@H](Cc1ccccc1)NC(=O)c1ccccc1)C(=O)C(=O)Nc1ccc(F)cc1 [PVA-011] | < 200 | –
COc1ccc(NC(=O)C(=O)[C@@H](NC(=O)[C@H](C)NC(=O)[C@H](Cc2ccccc2)NC(=O)c2ccccc2)C(C)C)cc1 [PVA-012] | < 2000 | –
CC(C)NC(=O)C(=O)[C@@H](NC(=O)[C@H](C)NC(=O)[C@H](Cc1ccccc1)NC(=O)c1ccccc1)C(C)C [PVA-015] | < 200 | –
CC(C)[C@H](NC(=O)[C@H](C)NC(=O)[C@H](Cc1ccccc1)NC(=O)c1ccccc1)C(=O)C(=O)N[C@@H](C)c1ccccc1 [PVA-016] | < 2000 | –
C[C@H](NC(=O)[C@H](Cc1ccccc1)NC(=O)c1ccccc1)C(=O)NCC(=O)C(=O)N1CCC(N(C)C)CC1 [PVA-018] | < 2000 | –
CC(C)[C@H](NC(=O)[C@H](C)NC(=O)[C@@H](Cc1ccccc1)NC(=O)c1ccc(-c2ccccc2)cc1)C(=O)C(=O)NC1CCCCC1 [PVA-019] | < 200 | –
CC(C)[C@H](NC(=O)[C@H](C)NC(=O)[C@@H](Cc1ccccc1)NC(=O)c1cccc(Oc2ccccc2)c1)C(=O)C(=O)NC1CCCCC1 [PVA-021] | < 2000 | –
CC(C)C(NC(=O)[C@H](C)NC(=O)[C@H](Cc1ccccc1)NC(=O)c1ccccc1)C(=O)C(=O)NCc1ccncc1 (some centres unmarked) [PVA-022] | < 200 | –
CC(C)C(NC(=O)[C@H](C)NC(=O)[C@H](Cc1ccccc1)NC(=O)c1ccccc1)C(=O)C(=O)NCc1ccccn1 (some centres unmarked) [PVA-023] | < 200 | –
CC(C)C(NC(=O)[C@H](C)NC(=O)[C@H](Cc1ccccc1)NC(=O)c1ccccc1)C(=O)C(=O)NCc1cccnc1 (some centres unmarked) [PVA-024] | < 200 | –
CC(C)C(NC(=O)[C@H](C)NC(=O)[C@H](Cc1ccccc1)NC(=O)c1ccccc1)C(=O)C(=O)NCCN1CCCC1 (some centres unmarked) [PVA-025] | < 2000 | –
CC(C)[C@H](NC(=O)[C@H](C)NC(=O)[C@@H](Cc1ccc(F)cc1)NC(=O)c1ccccc1)C(=O)C(=O)NC1CCCCC1 [PVA-027] | < 200 | –
CC(C)[C@H](NC(=O)[C@H](C)NC(=O)[C@@H](Cc1ccc(F)c(F)c1)NC(=O)c1ccccc1)C(=O)C(=O)NC1CCCCC1 [PVA-028] | < 200 | –
CC(C)[C@H](NC(=O)[C@H](C)NC(=O)[C@H](NC(=O)c1ccccc1)C1Cc2ccccc2C1)C(=O)C(=O)NC1CCCCC1 [PVA-029] | < 2000 | –
CC(C)[C@H](NC(=O)[C@H](C)NC(=O)[C@@H](Cc1ccccc1F)NC(=O)c1ccccc1)C(=O)C(=O)NC1CCCCC1 [PVA-030] | < 200 | –
CC(C)[C@H](NC(=O)[C@H](C)NC(=O)[C@@H](Cc1cccc(F)c1)NC(=O)c1ccccc1)C(=O)C(=O)NC1CCCCC1 [PVA-031] | < 200 | –
CC(C)[C@H](NC(=O)[C@H](C)NC(=O)[C@@H](Cc1ccc2ccccc2c1)NC(=O)c1ccccc1)C(=O)C(=O)NCc1ccccc1 [PVA-032] | < 200 | –
CC(C)[C@H](NC(=O)[C@H](C)NC(=O)[C@@H](Cc1ccc(-c2ccccc2)cc1)NC(=O)c1ccccc1)C(=O)C(=O)NCc1ccccc1 [PVA-033] | < 200 | –

Structure (SMILES) | IC50 [1] [nM] | also measured
CC(C)[C@H](NC(=O)[C@H](C)NC(=O)[C@@H](Cc1cccc2ccccc12)NC(=O)c1ccccc1)C(=O)C(=O)NCc1ccccc1 [PVA-034] | < 2000 | –
CC(C)[C@H](NC(=O)[C@H](C)NC(=O)[C@@H](Cc1ccccc1)NC(=O)c1ccncc1)C(=O)C(=O)NCc1ccccc1 [PVA-035] | < 20 | –
CC(C)[C@H](NC(=O)[C@H](C)NC(=O)[C@@H](Cc1ccncc1)NC(=O)c1ccccc1)C(=O)C(=O)NC1CCCCC1 [PVA-036] | < 200 | –
CCCC[C@H](NC(=O)[C@H](C)NC(=O)[C@@H](NC(=O)c1ccccc1)C(C)(C)C)C(=O)C(=O)NC1CCCCC1 [PVA-037] | < 20 | IC50 [2]: 7.85 nM
CCCC[C@H](NC(=O)[C@H](C)NC(=O)[C@@H](NC(=O)c1ccncc1)C(C)(C)C)C(=O)C(=O)NC1CCCCC1 [PVA-039] | < 20 | IC50 [2]: 6.3 nM
CCCCC(NC(=O)[C@H](C)NC(=O)[C@H](Cc1ccccc1)NC(=O)c1ccccc1)C(=O)C(=O)NCc1ccncc1 (some centres unmarked) [PVA-040] | < 2000 | –
CC(C)[C@H](NC(=O)[C@H](C)NC(=O)[C@H](Cc1ccccc1)NC(=O)c1ccccc1)C(=O)C(=O)NCc1ccc2c(c1)OCO2 [PVA-041] | < 200 | –
COc1ccc(CNC(=O)C(=O)[C@@H](NC(=O)[C@H](C)NC(=O)[C@H](Cc2ccccc2)NC(=O)c2ccccc2)C(C)C)cc1 [PVA-042] | < 20 | –
CCCC[C@H](NC(=O)[C@H](C)NC(=O)[C@@H](Cc1ccccc1)NC(=O)c1ccc(N2CCN(C)CC2)cc1)C(=O)C(=O)NC1CCCCC1 [PVA-043] | < 2000 | –
CC(C)[C@H](NC(=O)[C@H](C)NC(=O)[C@H](Cc1ccccc1)NC(=O)c1ccccc1)C(=O)C(=O)NC1CCOCC1 [PVA-044] | < 200 | –
CC(C)[C@H](NC(=O)[C@H](C)NC(=O)[C@@H](Cc1ccc(F)cc1)NC(=O)c1ccccc1)C(=O)C(=O)NCc1ccccc1 [PVA-045] | < 200 | –
COCCNC(=O)C(=O)[C@@H](NC(=O)[C@H](C)NC(=O)[C@H](Cc1ccccc1)NC(=O)c1ccccc1)C(C)C [PVA-046] | < 200 | –
CC(C)[C@H](NC(=O)[C@H](C)NC(=O)[C@H](Cc1ccccc1)NC(=O)c1ccccc1)C(=O)C(=O)NCC(=O)N1CCN(C)CC1 [PVA-047] | – | IC50 (Der p 1 IC50): < 20 nM
CC(C)[C@H](NC(=O)[C@H](C)NC(=O)[C@@H](NC(=O)c1ccnc(N2CCOCC2)c1)C(C)(C)C)C(=O)C(=O)NCc1ccccc1 [PVA-048] | < 200 | –
CC(C)[C@H](NC(=O)[C@H](C)NC(=O)[C@@H](NC(=O)c1ccc(N2CCOCC2)nc1)C(C)(C)C)C(=O)C(=O)NC1CCCCC1 [PVA-049] | < 200 | –
CC(C)[C@H](NC(=O)[C@H](C)NC(=O)[C@H](Cc1ccccc1)NC(=O)c1ccc2ncsc2c1)C(=O)C(=O)NC1CCCCC1 [PVA-050] | < 200 | –
CC(C)[C@H](NC(=O)[C@H](C)NC(=O)[C@H](Cc1ccccc1)NC(=O)c1ccc2ncsc2c1)C(=O)C(=O)NCc1ccccc1 [PVA-051] | < 200 | –
CC(C)[C@H](NC(=O)[C@H](C)NC(=O)[C@@H](NC(=O)c1cccc2ccccc12)C(C)(C)C)C(=O)C(=O)NC1CCCCC1 [PVA-052] | < 200 | –
CC(C)[C@H](NC(=O)[C@H](C)NC(=O)[C@@H](NC(=O)c1ccc2ncsc2c1)C(C)(C)C)C(=O)C(=O)NC1CCCCC1 [PVA-053] | < 200 | –
CC(C)[C@H](NC(=O)[C@H](C)NC(=O)[C@@H](NC(=O)c1cnccn1)C(C)(C)C)C(=O)C(=O)NC1CCCCC1 [PVA-054] | < 200 | –
CC(C)[C@H](NC(=O)[C@H](C)NC(=O)[C@@H](NC(=O)c1ccccc1)C(C)(C)C)C(=O)C(=O)NCC(=O)N1CCN(C)CC1 [PVA-055] | – | IC50 (Der p 1 IC50): < 20 nM
CC(C)[C@H](NC(=O)[C@H](C)NC(=O)[C@@H](NC(=O)c1cccc2ccccc12)C(C)(C)C)C(=O)C(=O)NCc1ccccc1 [PVA-056] | < 200 | –
CC(C)[C@H](NC(=O)[C@H](C)NC(=O)[C@@H](NC(=O)c1ccc2ncsc2c1)C(C)(C)C)C(=O)C(=O)NCc1ccccc1 [PVA-057] | < 200 | –
CC(C)[C@H](NC(=O)[C@H](C)NC(=O)[C@@H](NC(=O)c1cnccn1)C(C)(C)C)C(=O)C(=O)NCc1ccccc1 [PVA-058] | < 200 | –
CC(=O)Nc1ccc(C(=O)N[C@@H](Cc2ccccc2)C(=O)N[C@@H](C)C(=O)N[C@H](C(=O)C(=O)NCc2ccccc2)C(C)C)cn1 [PVA-059] | < 200 | –
CC(=O)Nc1cc(C(=O)N[C@@H](Cc2ccccc2)C(=O)N[C@@H](C)C(=O)N[C@H](C(=O)C(=O)NCc2ccccc2)C(C)C)ccn1 [PVA-060] | < 200 | –
CC(=O)Nc1ccc(C(=O)N[C@H](C(=O)N[C@@H](C)C(=O)N[C@H](C(=O)C(=O)NC2CCCCC2)C(C)C)C(C)(C)C)cn1 [PVA-061] | < 200 | –
